A short description of series [1]: Inhibition of Saccharomyces cerevisiae LeuRs.
A further series relates to Candida tropicalis. Briefly: Antifungal activity against Candida tropicalis KKP 334 by CLSI protocol based method. Format: functional.
The test system of series [2] is Cryptococcus neoformans. Briefly: Antifungal activity against Cryptococcus neoformans. It counts as functional.
In series [3] the test system is Aspergillus fumigatus. Nature of the series: Antifungal activity against Aspergillus fumigatus. Format: functional.
Series [4] relates to Candida albicans. Nature of the series: Antifungal activity against Candida albicans. It counts as functional.
Series [5] concerns Candida albicans. Briefly: Antifungal activity against Candida albicans infected in rat model of systemic candidiasis. It counts as functional, organism-based.
Series [6] is described as follows: Oral bioavailability in rabbit. Format: ADME, organism-based, Oryctolagus cuniculus. The conditions noted are these: in vivo.
Series [7] can be described thus: Half life in human. It counts as ADME, organism-based. The conditions noted are these: in vivo.
The nature of series [8]: Oral bioavailability in rat. Format: ADME, organism-based. The note with it: in vivo.
Series [9] can be described thus: Oral bioavailability in dog. It counts as ADME, organism-based, Canis lupus familiaris. The conditions noted are these: in vivo.
A short description of series [10]: Inhibition of Saccharomyces cerevisiae IleRS.
For series [11], the system named is Aspergillus fumigatus. Briefly: Antifungal activity against Aspergillus fumigatus IFM 40808 after 48 hrs by broth-microdilution method. It counts as functional. The conditions noted are these: IFM 40808, 48 h.
Series [12] is described as follows: Inhibition of Aspergillus fumigatus KU80UpyrG- NMT using [3H]-MCoA and CAP5.5 as substrate after 20 mins by SPA assay.
Another series relates to Kluyveromyces marxianus. Briefly: Antifungal activity against Candida kefyr. Format: functional.
Series [13] deals with Candida albicans. Briefly: Antifungal activity against Candida albicans ATCC 90028 after 48 hrs by broth-microdilution method. Format: functional. The conditions noted are these: ATCC 90028, 48 h. In general terms: Broth dilution looks for growth in wells or tubes with falling amounts of substance.
Series [14] concerns Candida albicans. Briefly: Antifungal activity against Candida albicans ATCC 44859 after 48 hrs by broth-microdilution method. The conditions noted are these: ATCC 44859, 48 h. Format: functional.
Series [15] relates to Candida albicans. Nature of the series: Antifungal activity against Candida albicans IFM 5728 after 48 hrs by broth-microdilution method. Format: functional. The note with it: IFM 5728, 48 h.
Series [16] deals with T1, Glycylpeptide N-tetradecanoyltransferase (Candida albicans (strain SC5314 / ATCC MYA-2876) (Yeast), UniProt P30418).
T1 sequence (P30418 whole entry): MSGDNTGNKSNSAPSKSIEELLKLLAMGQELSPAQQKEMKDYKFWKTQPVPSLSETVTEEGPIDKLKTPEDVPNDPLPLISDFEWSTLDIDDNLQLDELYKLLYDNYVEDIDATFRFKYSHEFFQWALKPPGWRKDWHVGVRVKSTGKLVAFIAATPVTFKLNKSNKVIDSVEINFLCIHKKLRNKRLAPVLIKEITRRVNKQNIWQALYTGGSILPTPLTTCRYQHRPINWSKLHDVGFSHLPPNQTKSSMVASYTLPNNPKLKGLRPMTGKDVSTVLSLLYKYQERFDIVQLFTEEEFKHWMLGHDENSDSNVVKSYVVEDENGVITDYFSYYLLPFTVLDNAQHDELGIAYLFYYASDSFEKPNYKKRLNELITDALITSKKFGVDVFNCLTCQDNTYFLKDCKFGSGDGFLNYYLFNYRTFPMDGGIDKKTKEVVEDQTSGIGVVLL
Nature of the series: Inhibition of Candida albicans ATCC 90028 NMT using GLTISKLFRR-NH2 as substrate assessed as reduction in [3H]-myristoylated peptide reaction product formation preincubated with substrate for 10 mins followed by enzyme addition measured after 10 mins by HPLC analysis.

Series [17] deals with Candida albicans. Briefly: Antifungal activity against Candida albicans TIMM 0171 after 48 hrs by broth-microdilution method. It counts as functional. The conditions noted are these: TIMM 0171, 48 h.
The subject of series [18] is Candida albicans. Nature of the series: Antifungal activity against Candida albicans ATCC 24433 after 48 hrs by broth-microdilution method. It counts as functional. The note with it: ATCC 24433, 48 h.
For series [19], the system named is Candida albicans. Nature of the series: Antifungal activity against Candida albicans IFM 40009 after 48 hrs by broth-microdilution method. The conditions noted are these: IFM 40009, 48 h. It counts as functional.
Series [20] concerns Candida albicans. Briefly: Antifungal activity against Candida albicans TIMM 0239 after 48 hrs by broth-microdilution method. It counts as functional. The note with it: TIMM 0239, 48 h.
In series [21] the test system is Cryptococcus neoformans. Briefly: Antifungal activity against Cryptococcus neoformans TIMM 3173 after 48 hrs by broth-microdilution method. It counts as functional. The conditions noted are these: TIMM 3173, 48 h.
Series [22] concerns Aspergillus fumigatus. Briefly: Antifungal activity against Aspergillus fumigatus MTU 06002. Format: functional.

Values after ≈ are worked out from the molar mass of the structure shown.

The text below walks through data of ChEMBL document CHEMBL4190370, “Emerging New Targets for the Treatment of Resistant Fungal Infections” (J Med Chem, 2018).

Broadly, the IC50 is the concentration at which inhibition is half-maximal. As for `OB1OCc2cc(F)ccc21` [TAVABOROLE], the IC50 in [1] is 2.1 µM.
As a reminder, the MIC is the least concentration at which growth counts as inhibited. `COC(=O)c1ccc(C[C@@H](C(=O)OC)[C@@H](O)C(=O)OC)cc1`: 1000 µg/mL (≈ 3220 µM) was the least that counted as inhibitory with Candida tropicalis (MIC).
One may read the MIC90 as an inhibitory concentration at the 90% level, which refers to growth in some studies and to a panel of isolates in others. Consider `Cc1c(COc2ccc(F)c(F)c2F)oc2cccc(OCCCNCc3cccnc3)c12`, for which the MIC90 in the series with Cryptococcus neoformans [2] is 3.13 µg/mL (≈ 6.86 µM). Besides, the minimal inhibitory concentration (MIC) in the series on Aspergillus fumigatus [3] is 25 µg/mL (≈ 54.8 µM); with Candida albicans [4], 0.05 µg/mL (≈ 0.11 µM). This compound also yielded an EC50 in the series on Candida albicans [5] of 7.1 mg/kg.
What is called bioavailability is the share of a dose that reaches the circulation, judged against a reference dose that is usually intravenous. Broadly, the half-life is the time needed for the level to fall by half in the phase considered. Lower therefore signals rapid decline. For orientation: Ki means the equilibrium dissociation constant of an inhibitor or competing ligand from its target. A lower Ki goes with higher affinity. For the compound `C=C1C[C@H](N)[C@H](C(=O)O)C1` [ICOFUNGIPEN], the bioavailability in [6], in series [8] and in series [9] was 100% in each case. Also, the half-life in series [7] is 7 h. The compound also returned a Ki in series [10] of 1000 µM.
In the series on Aspergillus fumigatus [11], `Cc1c(NS(=O)(=O)c2c(Cl)cc(-c3ccnc(N4CCNCC4)c3)cc2Cl)c(CC(C)C)nn1C` [ZELENIRSTAT] had an MIC of 925 µM (≈ 497 µg/mL). In addition, the concentration for half-maximal inhibition (IC50) in [12] was determined as 0.012 µM.
In turn, `N[C@@H](CC(=O)CO)C(=O)O` had an MIC against Kluyveromyces marxianus of 6.25 to 12.5 µg/mL (≈ 42.5 to 85 µM).
Regarding `O=C(Nc1nc2ccc(NC(=O)[C@@H]3CCC[C@H](NCc4ccc5ccccc5c4)C3)cc2s1)C1CCCC1`, the minimum inhibitory concentration (MIC) is 0.78 µM (≈ 0.411 µg/mL) against Candida albicans [13]; 0.78 µM (≈ 0.411 µg/mL) in the series with Candida albicans [14]; 0.78 µM (≈ 0.411 µg/mL) in the series with Candida albicans [15]; 0.78 µM (≈ 0.411 µg/mL) in the series with Candida albicans [17]; greater than 25 µM in the series with Aspergillus fumigatus [11]; 0.78 µM (≈ 0.411 µg/mL) in the series with Candida albicans [18]. The values for the minimum inhibitory concentration (MIC) in the series with Candida albicans [19], in the series with Candida albicans [20] and with Cryptococcus neoformans [21] were 0.78 µM (≈ 0.411 µg/mL), 0.78 µM (≈ 0.411 µg/mL) and greater than 25 µM, respectively. Moreover, the half-maximal inhibitory concentration (IC50) in [16] is 0.00049 µM.
For orientation: IC80 means the concentration needed for an effect of 80%. Read a high IC80 as weaker potency. `C/N=[N+](\[O-])CC[C@H](N)C(=O)O` yielded an IC80 with Aspergillus fumigatus [22] of 0.72 µg/mL (≈ 4.47 µM).
